Common to all, as to type: cell-based, human
The subject of test [1] is dermal fibroblasts spheroids (DFSs). In words: On-chip screening of active ingredients on DFSs: collagen type I and fibronectin secretion (ELISA of culture supernatant). The protocol: The microfluidic device was first, purged for 20 min with fluorinated oil with 0.5 wt % 008-fluorosurfactant (RAN Biotechnologies, USA) at a flow rate of 0.1 mL/hr. Subsequently, the supplying channel and the microwells were filled with the hDFs-in-EKGel I suspension with a cell density of 4.9×10^5 cells/μL. After that, the cell suspension in the supplying channel was replaced with fluorinated oil with 0.5 wt % surfactants. The inlet and outlet of the microfluidics quadruplet device were then sealed with PCR sealing tape and incubated at 37° C. for 2 hours, allowing EKGel to gel. Subsequently, the complete culture medium was continuously flowed through the supplying channel at the flow rate of 0.025 mL/hr. On the second day (Day 1), hDFs-laden EKGel droplets transformed into dermal fibroblasts spheroids (DFSs). Due to the contraction of DFSs, free space was present in each microwell, which allowed the incorporation of a second layer. To introduce another layer of keratinocytes, the culture medium was replaced by fluorinated oil with 0.5 wt % surfactants.
(§1) To study the effect of vitamin C or retinol on DFSs or KDFSs, on Day 2 the complete culture medium was replaced with 1% FBS DMEM culture medium with 1% (v/v) penicillin/streptomycin containing 0, 20, or 100 μg/mL vitamin C. Retinol at concentrations of 0, 30, 45, 60 μM was dissolved in 1% FBS DMEM culture medium with 1% (v/v) penicillin/streptomycin and 0.1% dimethyl sulfoxide (DMSO). The culture supernatant was collected from the outlet every 24-hours for analysis.
The amount of procollagen type I and fibronectin synthesized by hDFs and released in the supernatant were quantified using two ELISA kits, namely, Procollagen Type I C-Peptide (PIP) ELISA kit (MK101, Takara Bio Inc.) and Fibronectin ELISA kit (MK115, Takara Bio Inc.). Procollagen type I was used as the indicator for the collagen type I synthesized from hDFs. To determine the amount of procollagen type I synthesized by the cells, 20 μL collected culture supernatant and 100 μL of the anti-PIP antibody-peroxidase (POD) were added into a 96-well microplate coated with anti-PIP antibody and incubated at 37° C. for 3 hours. To determine the amount of fibronectin synthesized by the cells, 100 μL of the supernatant was first, added to the antibody-coated 96-well microplate for 1 hour at 37° C., thus allowing the fibronectin in the supernatant to bond to the antibody-coated on the microplate.
The supernatant was then discarded, and the microplates were washed with 1×PBS (MK021, Takara Bio Inc.) three times. Subsequently, the captured fibronectin was tagged by adding 100 μL of anti-human fibronectin antibody-POD conjugate into the microplate and incubating it for another 1 hour at 37° C. Upon completion of the antibody-POD conjugate incubation for both assays, the liquid content in the microwells was discarded and the microwells were washed four times with 1×PBS. 100 μL substrate solution (solution of 3,3′,5,5′-tetramethylbenzidine) was then added to the wells and incubated at room temperature for 15 min. Subsequently, 100 μL stop solution (MK021, Takara Bio Inc.) was added to each well. After stopping the reaction between POD and substrate, the absorbance of the contents of each microwell at 450 nm was measured by the CLARIOstar plate reader.
On the technique in general: In an ELISA, binding on a coated surface is turned into a signal by an enzyme label.

For test [2], the system named is keratinocyte-dermal fibroblasts spheroids (KDFSs). Nature of the test: Vitamin C screening on KDFSs: collagen type I and fibronectin secretion. To be noted: 24-hour treatment; KDFSs from two lineages of dermal fibroblasts. The protocol: Keratinocytes were suspended in EKGel II precursor solution at a cell/gel mass ratio of 75:25. The keratinocytes-in-EKGel II suspension was then purged into the channel and filled the microwells. Consequently, the cell suspension in the supplying channel was washed away by fluorinated oil mixed with 0.5 wt % surfactants. The device was sealed and incubated at 37° C. for 1 hour. Finally, the complete culture medium was flowed to the microfluidic device at the flow rate of 0.025 mL/hr. On Day 2, keratinocytes aggregated and integrated with the hDF core to form layered skin spheroids, KDFSs.
To study the effect of vitamin C or retinol on DFSs or KDFSs, on Day 2 the complete culture medium was replaced with 1% FBS DMEM culture medium with 1% (v/v) penicillin/streptomycin containing 0, 20, or 100 μg/mL vitamin C. […]
The amount of procollagen type I and fibronectin synthesized by hDFs and released in the supernatant were quantified using two ELISA kits, namely, Procollagen Type I C-Peptide (PIP) ELISA kit (MK101, Takara Bio Inc.) and Fibronectin ELISA kit (MK115, Takara Bio Inc.). […]
The supernatant was then discarded, and the microplates were washed with 1×PBS (MK021, Takara Bio Inc.) three times. […] After stopping the reaction between POD and substrate, the absorbance of the contents of each microwell at 450 nm was measured by the CLARIOstar plate reader.

Test [3] relates to dermal fibroblasts spheroids (DFSs). In words: Immunofluorescence staining of collagen type I and fibronectin deposited in DFSs on the chip. To be noted: 72-hour treatment, 100 μg/mL vs 0 μg/mL vitamin C. The protocol:
as §1
The immunofluorescence staining on DFSs/KDFSs formed in the microfluidic device was conducted by flowing a series of solutions at a flow rate of 0.15 mL/hr into the supplying microchannel in the following order. First, 1× Hanks' Balanced Salt Solution (HBSS) was flowed into the device for 20 min to remove the cell culture medium. Subsequently, a 5% formalin solution in HBSS was flowed to fix the DFSs/DKFSs. Subsequently, the formalin was washed away by purging 0.1 M glycine in 1×HBSS for 60 min. To permeate the DFSs/KDFSs, 0.5% triton-X in 1×HBSS was flowed into the device for 30 min. Subsequently, an immunofluorescence (IF) solution (consisting of 0.05 wt % NaN3, 0.1 wt % bovine serum albumin, 0.2 vol. % triton-X-100 and 0.05 vol. % Tween-20 in HBSS) was flowed to the microfluidics for 45 min. Primary blocking solution (10 wt % goat serum in IF washing solution) was then flowed for 60 min. […]

Where [4] appears, read: 100 μg/mL vitamin C for 24-hours.

For `CC1=C(/C=C/C(C)=C/C=C/C(C)=C/CO)C(C)(C)CCC1` [retinol], the “effect on fibronectin production in DFSs” value was “positive and significant effect” in test [1] (retinol 30 μM, preliminary study); “positive and significant effect” in test [1] (retinol 45 μM, preliminary study). For the same molecule, the “effect of retinol on DFSs (fibronectin production)” value in test [1] (retinol 60 μM, longer incubation time (day 5), preliminary study) was “negative effect”. Moreover, in test [1] (retinol 30, 45, 60 μM, preliminary study), the “effect on collagen expression in DFSs” value is given as “significant positive effect of retinol was not yet observed”.

As to `O=C1O[C@H]([C@@H](O)CO)C(O)=C1O` [vitamin C], the “concentration required to stimulate the production of collagen and fibronectin in KDFSs compared to DFSs” value in test [2] is “a higher concentration of vitamin C was required”. Also, in test [1] (setting [4]), the “collagen type I secretion from DFSs” value is listed as “increased level” and the “fibronectin secretion from DFSs” value is given as “increased level”. Further, in test [3], the “deposition of collagen type I in DFSs” value is recorded as “increased” and the “deposition of fibronectin in DFSs” value is listed as “increased”.

Values taken from patent US20240002789A1, “SKIN SPHEROIDS AND PROCESS OF PREPARATION AND USE THEREOF” (The Governing Council of The University of Toronto, priority 2020, published 2024).
